B1: wtLu-ECAM-1: wild type Lu-ECAM-1 purified with mAb 6D3 from extracts of bovine aortic endothelial cells (protein)
chain: MVLCLNVILFLTLHLLPGMKSSMVNLINNGYDGIVIAINPSVPEDEKLIENIKEMVTEASTYLFHATKRRVYFRNVSILIPMTWKSKSEYFIPKQESYDQADVIVANPYLKYGDDPYTLQYGRCGEKGKYIHFTPNFLLTNNFHIYGSRGRVFVHEWAHLRWGIFDEYNVDQPFYISRKNTIEATRCSTHITGINVVFKKCPGGSCITSLCRRDSQTGLYEAKCTFLPKKSQTAKESIMFMPSLHSVTEFCTEKTHNTEAPNLQNKMCNGKSTWDVIMNSVDFQNTSPMTEMNPPTHPTFSLLKSKQRVVCLVLDKSGSMSAEDRLFQMNQAAELYLIQVIEKGSLVGMVTFDSVAEIQNHLTRITDDNVYQKITAKLPQVANGGTSICRGLKAGFQAIIHSDQSTSGSEIILLTDGEDNEINSCFEDVKRSGAIIHTIALGPSAAKELETKSNMTGGYRFFANKDITGLTNAFSRISSRSGSITQQAIQLESKALKITGRKRVNGTVPVDSTVGNDTFFVVTWTIQKPEIVLQDPKGKKYKTSDFKEDKLNIRSARLQIPGIAETGTWTYSLLNNHASSQMLTVTVTTRARSPTIPPVIATAHMSQHTAHYPSPMIVYAQVSQGFLPVLGISVIAIIETEDGHQVTLELWDNGAGRDTVKNDGIYSRYFTDYYGNGRYSLKVHAQARNNTARLNLRQPQNKVLYVPGYVENGKIILNPPRPEVKDDLAKAKIEDFSRLTSGGSFTVSGAPPPGNHPSVFPPSKITDLEAKFKEDYIQLSWTAPGNVLDKGKANSYIIRISKSFMDRQEDFDNATLVNTSNLIPKEAGSKENFEFKPEHFRVENGTKFYISVQAINEANLISEVSHIVQAIKFIPLPEDSVHDLGTKISEITLAILGLPMIFSVF
modifications: OTHER INFORMATION: Lu-ECAM-1 precursor from bovine endothelial cells
notes: wild type Lu-ECAM-1 purified with mAb 6D3 from extracts of bovine aortic endothelial cells

Experiments:
[1] = tested on: hCLCA1; test: whole cell recording in hCLCA1-transfected HEK293 cells; format: cell-based, human; conditions: for whole cell current after addition of inhibitor: hCLCA1-transfected cells, activated current 11.06 pA/pF
Source text: (§1) In another embodiment of the invention, mCLCA1 cDNA was cut from the pBluescript vector (Stratagene) with SacI and PvuI, blunt ended with Klenow Polymerase and inserted into the tetracycline sensitive mammalian expression vector (pTet-splice, Life Technologies, Inc.) at the EcoRV site. HEK293 cells were cotransfected with mCLCAl cDNA cloned into the pTet-splice along with a vector expressing a tetracycline activator (pTet-tTak) using standard transfection techniques well known to those skilled in the art and as described above (Lipofectamine, Life Technologies, Inc.). Cells were cotransfected with a reporter vector as described above. In another illustration of this embodiment, human CLCA1, HEK293 cells were transfected with either pcDNA 3.1 containing the CLCA1 insert and a reporter vector (enhanced green fluorescent protein, EGFP, CLONTECH) or the reporter vector alone. Transfection can be carried out by standard techniques known to those skilled in the art including CaPO4 precipitation or Lipofectamine (Life Technologies).
(§2) This embodiment illustrates that the full length cDNAs of the present invention encode calcium sensitive chloride channels. The various cDNAs were used for transfection of a cell line. For electrophysiological studies, cells were also cotransfected with a reporter vector (pEGFP, CLONTECH). Cotransfection with a reporter vector allows for easy identification of transfected cells by visualization under a fluorescent microscope. Whole cell recording was then carried out in the transfected cells to determine the presence of calcium sensitive chloride channels.
(§3) Transfected cells were used for electrophysiological recording. Cells were superfused with a bath solution containing 112 mM NMDG-Cl, 30 mM sucrose, 1 mM EGTA, 0.366 mM CaCl2, 2 mM MgCl2, 5 mM N-2-hydroxy-xyethanylpiperazine-N-2-ethanesulfonic acid. Whole cell channel activity was recorded in transfected cells by using borosilicate glass electrodes (tip resistance 4-9 M ohms) filled with the bath solution. Recordings were carried out in the presence or absence of a calcium channel inhibitors (DIDS, niflumic acid and DTT). […] Whole cell currents were recorded at room temperature, sampled at 5-10 kHz and filtered at 1-2 kHz. The I-V relationship was determined using 300 ms voltage steps from a holding potential of +20 mV to potentials from −100 to +100 mV at 10 mV intervals. To normalize measured membrane currents to membrane currents to membrane capacitance, the capacitive current transient recorded in response to a 10 mV hyperpolarizing pulse was integrated and divided by the given voltage to give total membrane capacitance (Cm) for each cell.

[2] = tested on: mCLCA1; test: whole cell recording in mCLCA1-transfected HEK293 cells; format: cell-based, murine; conditions: for effect on Ca2+ sensitive chloride current under whole cell conditions: mCLCA1-transfected HEK293 cells
Source text: as §1, §2
(§4) Transfected cells were used for electrophysiological recording. Cells were superfused with a bath solution containing 112 mM NMDG-Cl, 30 mM sucrose, 1 mM EGTA, 0.366 mM CaCl2, 2 mM MgCl2, 5 mM N-2-hydroxy-xyethanylpiperazine-N-2-ethanesulfonic acid. Whole cell channel activity was recorded in transfected cells by using borosilicate glass electrodes (tip resistance 4-9 M ohms) filled with the bath solution. Recordings were carried out in the presence or absence of a […] channel inhibitors (DIDS, niflumic acid and DTT). To determine the effect of ionomycin on channel activity, electrodes filled with standard bath solution containing either 5 mM ATP and 1 mM EGTA in the presence of low intracellular calcium. After gigaohm seal formation, cells were clamped at +20 mV. Whole cell currents were recorded at room temperature, sampled at 5-10 kHz and filtered at 1-2 kHz. The I-V relationship was determined using 300 ms voltage steps from a holding potential of +20 mV to potentials from −100 to +100 mV at 10 mV intervals. To normalize measured membrane currents to membrane currents to membrane capacitance, the capacitive current transient recorded in response to a 10 mV hyperpolarizing pulse was integrated and divided by the given voltage to give total membrane capacitance (Cm) for each cell.

[3] = tested on: hCLCA2; test: whole cell recording in hCLCA2-transfected HEK293 cells; format: cell-based, human; conditions: for sensitivity of the current to inhibitor: DIDS 300 uM, DTT 2 mM, niflumic acid 100 uM, tamoxifen 10 uM
Experimental: For human CLCA2, HEK293 cells were transfected using Lipofectamine using manufacturer's instructions. For example, 5 ul lipid and 0.5 ul of CLCA2 were cloned into pcDNA 3.1 per 35 mm well in a 2-3 hour incubation. For expression studies, the 2,832 bp CLCA2 ORF was PCR amplified from human trachea poly-A^+RNA (Clontech) following reverse transcription with Superscript RNase H reverse transcriptase (Life Technologies) and random hexamer priming. PCR was performed with Pwo DNA Polymerase (Boehringer; initial denaturation at 94° C. for 3 min, 35 cycles of 94° for 50 s, 58° C. for 30s, and 72° C. for 2 min with a time increment of 3 s per cycle for each extension step (72° C.), followed by a final extension step of 72° C. for 8 min). Primer sequences were (upstream primer: SEQ ID NO:41, downstream primer: SEQ ID NO:42 with NotI-linkers underlined). PCR products were gel purified, incubated with NotI, and cloned into the expression vector pcDNA3.1 (Invitrogen). Four different PCR products were sequenced to control for potential PCR-induced sequence errors. Cells were simultaneously cotransfected with a reporter vector as described above. Chloride channel conductance activity was recorded after allowing the cells to recover for 24 hours.
as §2, §4

[4] = tested on: non-transfected or control-transfected cells; test: whole cell recording in non-transfected or control-transfected cells; format: cell-based; conditions: ionomycin 2 uM
Experimental: as §2
as §3, with “Cells were superfused with a bath solution containing 112 mM NMDG-Cl, 30 mM sucrose, 1 mM EGTA, 0.366 mM CaCl2, 2 mM MgCl2, 5 mM N-2-hydroxy-xyethanylpiperazine-N-2-ethanesulfonic acid.” left out, “solution.” for “solution. Recordings were carried out in the presence or absence of a calcium channel inhibitors (DIDS, niflumic acid and DTT).”

[5] = tested on: lung-metastatic B16-Fl0 melanoma cells; test: tumor cell adhesion assay on Lu-ECAM-1 coated wells; format: cell-based; conditions: wells coated with 100 μg/ml protein; 10 minutes at 37° C.
Experimental: Recombinant (r) Lu-ECAM-1 and wild type (wt) Lu-ECAM-1 were compared in their adhesion ability to lung-metastatic B16-Fl0 melanoma cells. Using anti-Lu-ECAM-1 mAb 6D3, wtLu-ECAM-1 was purified from extracts of bovine aortic endothelial cells, and rLu-ECAM-1 was purified from extracts of transfected HEK293 cells. The tumor cell adhesion assay was performed as described previously (Zhu et al., 1992, supra). Briefly, 100 μg/ml in phosphate buffered saline of either wtLu-ECAM-1 or rLu-ECAM-1 was used to coat wells of 96 plates overnight at 4° C. Wells were then washed with tissue culture medium, and each well is seeded with a suspension of tissue culture medium and 2×10^4 tumor cells which had been radio-labelled. After being spun onto the coated wells at 15 g for 1 minute, and incubated for 10 minutes at 37° C., nonadherent tumor cells were spun off at 150 g for 5 minutes. Adherent tumor cells were then dissolved in 1% SDS and counted in a liquid scintillation counter. Tumor cell attachment is recorded as the percent cells bound of the total cells seeded. Inhibition of tumor cell adhesion is determined by first incubating the Lu-ECAM-1 coated wells with mAb 6D3 (10 μg/ml) for 1 hour at room temperature before the tumor cells are added.

[6] = tested on: B1GF10 melanoma cells; conditions: mouse, in vivo; cited from earlier work

| Molecule | whole cell current after addition of inhibitor [1] [pA/pF] | effect on Ca2+ sensitive chloride current under whole cell conditions [2] | sensitivity of the current to inhibitor [3] | further results |
| --- | --- | --- | --- | --- |
| O=S(=O)(O)c1cc(N=C=S)ccc1C=Cc1ccc(N=C=S)cc1S(=O)(=O)O [DIDS] | 1.63 | inhibited | sensitive | whole cell current after perfusion of inhibitor ([2]; 300 uM DIDS, 2 mM Ca2+, basal 12.01±6.31 pA/pF): 1.84 ±0.96 pA/pF |
| C[C@H](CCC(=O)O)C[C@H](C)C[C@H](C)C(=O)/C=C(\O)[C@H](C)C[C@H](C)C/C=C/[C@@H](C)[C@@H](O)[C@@H](C)[C@@H](O)C[C@@H]1CC[C@@](C)([C@H]2CC[C@@](C)([C@@H](C)O)O2)O1 [ionomycin] |  |  |  | effect of ionomycin on current in non-transfected or control-transfected cells [4]: No significant effect; maximally activated current at +100 mV after external perfusion of ionomycin ([1]; ionomycin 2 uM, increase from 0.65 pA/pF): 11.06 pA/pF; whole cell current at +100 mV with ionomycin ([2]; ionomycin 2 uM, low intracellular free Ca2+, basal 2.05±1.09 pA/pF): 10.23±3.46 pA/pF; activation of the current by ionomycin ([3]; ionomycin 4 uM in bath, pipet about 25 nM Ca2+, 2 mM Ca2+ in the bath): activated the current |
| O[C@@H](CS)[C@@H](O)CS [DTT] | 1.67 | inhibited | sensitive |  |
| CC/C(=C(\c1ccccc1)c1ccc(OCCN(C)C)cc1)c1ccccc1 [tamoxifen] |  |  | sensitive |  |
| O=C(O)c1cccnc1Nc1cccc(C(F)(F)F)c1 [niflumic acid] | 2.07 | inhibited | sensitive |  |
| B1 |  |  |  | adhesion of lung-metastatic tumor cells supported (percent cells bound of the total cells seeded) [5]: 43%; prevention or inhibition of metastatic colonization of the lungs by B1GF10 cells [6]: inhibition of metastatic colonization |

From patent US6692939B2, “Nucleotide sequences encoding mammalian calcium activated chloride channel-adhesion molecules” (Cornell Research Foundation, Inc., priority 1997, dated 2004)
